Laboratory results reported in patent US11806402B2, “Sulfoalkyl ether cyclodextrin compositions” (CyDex Pharmaceuticals, Inc., priority 2008, dated 2023).

Experiment: Assay and impurity analysis (HPLC) of heat-stressed SBE6.6-β-CD/glucocorticosteroid (budesonide) formulation
Format: physicochemical
Conditions: glucocorticosteroid standard, no SBE6.6-β-CD lot
Method: Comparative evaluation of the stability of various lots of SBE6.6-β-CD that underwent a single or a double treatment with activated carbon (according to Examples 27 and 24, respectively) were formulated with a glucocorticosteroid (budesonide) and an excipient (water), and were examined by HPLC. The general procedure is provided below.
SBE6.6-β-CD solutions (7.5% w/w, formulated with SBE6.6-β-CD Lot Nos. 17CX01.HQ00025, 17CX01.HQ00029 and 17CX01.HQ00041), were prepared by dissolving about 7.5 grams of SBE6.6-β-CD (corrected for water content) in 100 mL of water. A glucocorticosteroid was weighed in amounts in excess of the anticipated solubilities directly into TEFLON®-lined screw-capped containers. Approximately 275 μg/mL of the glucocorticoid steroid was vigorously stirred for 2 hours in an amber glass container. At the end of the agitation time, the glucocorticosteroid solution was filtered using a 0.24 μm syringe filter.
Control solution samples were removed before autoclaving. Aliquots of the solutions were autoclaved for four 20 minute cycles at 121° C. The samples were then analyzed by HPLC to determine assay content and the level of impurities formed during the heating cycles. Solution samples of SBE6.6-β-CD were prepared and analyzed on a PERKIN ELMER Lambda 35 UV/Vis spectrophotometer, scanning from 190 nm to 400 nm at a speed of 240 nm/min and a slit width of 1.0 nm to determine the UV content.

CCCC1O[C@@H]2C[C@H]3[C@@H]4CCC5=CC(=O)C=C[C@]5(C)[C@H]4[C@@H](O)C[C@]3(C)[C@]2(C(=O)CO)O1 (stereo partly drawn) [Glucocorticosteroid (“GS”) Std., budesonide]
Assay GS Total: 99.385 Area % | Assay R-GS: 51.888 Area % | Assay S-GS: 47.497 Area % | Assay Δ: 0% | Impurities A: 0.001 Area % | Impurities B (S-11-keto-derivative): 0.127 Area %
